Test results: paper PMC6272715, “Discovery of Novel Small Molecule Anti-HCV Agents via the CypA Inhibitory Mechanism Using O-Acylation-Directed Lead Optimization” (Molecules, 2015)
Read-outs that look alike come from different tables or passages of the source.

Assays:
HCV JFH1-2a replicon = experiment: HCV JFH1-2a subgenomic replicon assay (Renilla luciferase, Huh 7.5.1 replicon cells); assay type: cell-based; details: Hepatitis C virus
[1] = system: JFH1-2a virus (wild type); experiment: HCV virus assay, JFH1-2a wild type, Huh 7.5.1 cells; details: Hepatitis C virus, Huh-7.5.1, read-out: Anti-HCV Activity EC50 ± SD Virus Assay JFH1-2a
[2] = Cell proliferation (cytotoxicity) assay, WST-1; assay type: cell-based; details: human, Huh 7.5.1 cells, Table 4, 48 h
Protocol: Cell Proliferation Assay: Huh 7.5.1 cells were seeded at a density of 2 × 10^4 cells per well in 96-well plates overnight. The cells were respectively incubated with serial diluted compounds for 48 h, and the viability of Huh7.5.1 cells was determined in 96-well tissue culture plates using cell proliferation reagent WST-1 (Roche, Basel, Switzerland). The absorbance (OD450 /reference OD630) was measured to detect the cytotoxicity of compounds, according to the manufacturer’s protocol of Cell Proliferation Reagent WST-1.

HCV Con1-1b replicon = experiment: HCV Con1-1b subgenomic replicon assay; assay type: cell-based; details: Hepatitis C virus; Table 4; read-out: Anti-HCV Activity EC50 ± SD Replicon Assay Con1-1b
HCV H77-1a replicon = experiment: HCV H77-1a subgenomic replicon assay; assay type: cell-based; details: Hepatitis C virus; Table 4; read-out: Anti-HCV Activity EC50 ± SD Replicon Assay H77-1a
[3] = Table 1, mean ± SD of three independent experiments, read-out: Anti-HCV JFH1-2a Replicon Assay EC50 ± SD
[4] = Table 4, read-out: Anti-HCV Activity EC50 ± SD Replicon Assay JFH1-2a

SMILES: O=C(NC(=O)c1c(O)cccc1O)Nc1cccc2ccccc12 [Compound 2]
- EC50 (HCV JFH1-2a replicon; [3]): > 10000 nM

SMILES: O=C(NCc1ccccc1)NC(=O)c1c(O)cccc1O [Compound 3]
- EC50 (HCV JFH1-2a replicon; [3]): > 50000 nM

SMILES: O=C(NC(=O)c1c(O)cccc1O)NC1CCCCC1 [Compound 4]
- EC50 (HCV JFH1-2a replicon; [3]): > 50000 nM

SMILES: O=C(NC(=O)c1ccccc1Cl)NC1c2ccccc2-c2ccccc21 [Compound 5]
- EC50 (HCV JFH1-2a replicon; [3]): > 50000 nM

SMILES: O=C(NC(=O)c1ccccc1[N+](=O)[O-])NC1c2ccccc2-c2ccccc21 [Compound 6]
- EC50 (HCV JFH1-2a replicon; [3]): > 50000 nM

SMILES: N#Cc1ccccc1C(=O)NC(=O)NC1c2ccccc2-c2ccccc21 [Compound 7]
- EC50 (HCV JFH1-2a replicon; [3]): > 50000 nM

SMILES: O=C(NC(=O)c1ccccc1F)NC1c2ccccc2-c2ccccc21 [Compound 8]
- EC50 (HCV JFH1-2a replicon; [3]): 1650 ± 320 nM

SMILES: O=C(NC(=O)c1ccccc1C(F)(F)F)NC1c2ccccc2-c2ccccc21 [Compound 9]
- EC50 (HCV JFH1-2a replicon; [3]): > 10000 nM

SMILES: CSc1ccccc1C(=O)NC(=O)NC1c2ccccc2-c2ccccc21 [Compound 10]
- EC50 (HCV JFH1-2a replicon; [3]): > 50000 nM

SMILES: O=C(NC(=O)c1c(F)cccc1F)NC1c2ccccc2-c2ccccc21 [Compound 11]
- EC50 (HCV JFH1-2a replicon; [3]): > 50000 nM

SMILES: CSc1cccc(F)c1C(=O)NC(=O)NC1c2ccccc2-c2ccccc21 [Compound 12]
- EC50 (HCV JFH1-2a replicon; [3]): > 50000 nM

SMILES: COc1cccc(Cl)c1C(=O)NC(=O)NC1c2ccccc2-c2ccccc21 [Compound 13]
- EC50 (HCV JFH1-2a replicon; [3]): > 50000 nM

SMILES: CC(=O)Oc1cccc(OC(C)=O)c1C(=O)NC(=O)NC1c2ccccc2-c2ccccc21 [Compound 15, 1-[2,6-Bis-(acetoxy)benzoyl]-3-(9H-fluoren-9-yl)-urea]
- EC50 [1]: 740 ± 360 nM
- CC50 at 48 h [2]: > 16 µM
- EC50 (HCV JFH1-2a replicon; [3]): 460 ± 50 nM
- EC50 (HCV JFH1-2a replicon; [4]): 460 ± 50 nM
- EC50 (HCV Con1-1b replicon): 360 ± 40 nM
- EC50 (HCV H77-1a replicon): 800 ± 130 nM

SMILES: O=C(NC(=O)c1c(O)cccc1OCCO)NC1c2ccccc2-c2ccccc21 [Compound 16]
- EC50 (HCV JFH1-2a replicon; [3]): > 20000 nM

SMILES: O=C(NC(=O)c1c(OCCO)cccc1OCCO)NC1c2ccccc2-c2ccccc21 [Compound 17]
- EC50 (HCV JFH1-2a replicon; [3]): > 20000 nM

SMILES: CCC(=O)Oc1cccc(O)c1C(=O)NC(=O)NC1c2ccccc2-c2ccccc21 [Compound 19, 1-(2-Hydroxy-6-propionyloxybenzoyl)-3-(9H-fluoren-9-yl)-urea]
- EC50 [1]: 470 ± 40 nM
- CC50 at 48 h [2]: > 16 µM
- EC50 (HCV JFH1-2a replicon; [4]): 940 ± 70 nM
- melting point: 206 to 216 °C
- EC50 (HCV Con1-1b replicon): 720 ± 200 nM
- EC50 (HCV H77-1a replicon): 380 ± 220 nM

SMILES: CCCC(=O)Oc1cccc(O)c1C(=O)NC(=O)NC1c2ccccc2-c2ccccc21 [Compound 20, 1-(2-Hydroxy-6-n-butyryloxybenzoyl)-3-(9H-fluoren-9-yl)-urea]
- EC50 [1]: 280 ± 20 nM
- CC50 at 48 h [2]: > 16 µM
- EC50 (HCV JFH1-2a replicon; [4]): 700 ± 20 nM
- melting point: 204 to 210 °C
- EC50 (HCV Con1-1b replicon): 490 ± 20 nM
- EC50 (HCV H77-1a replicon): 980 ± 30 nM

SMILES: O=C(NC(=O)c1c(O)cccc1OC(=O)C1CC1)NC1c2ccccc2-c2ccccc21 [Compound 21, 1-(2-Cyclopropyl formyloxy-6-hydroxybenzoyl)-3-(9H-fluoren-9-yl)-urea]
- EC50 [1]: 780 ± 350 nM
- CC50 at 48 h [2]: > 16 µM
- EC50 (HCV JFH1-2a replicon; [4]): 430 ± 80 nM
- melting point: 194 to 199 °C
- EC50 (HCV Con1-1b replicon): 850 ± 240 nM
- EC50 (HCV H77-1a replicon): 570 ± 200 nM

SMILES: CCCCC(=O)Oc1cccc(O)c1C(=O)NC(=O)NC1c2ccccc2-c2ccccc21 [Compound 22, 1-(2-Hydroxy-6-valeryloxybenzoyl)-3-(9H-fluoren-9-yl)-urea]
- EC50 [1]: 440 ± 30 nM
- CC50 at 48 h [2]: > 16 µM
- EC50 (HCV JFH1-2a replicon; [4]): 470 ± 20 nM
- melting point: 193 to 199 °C
- EC50 (HCV Con1-1b replicon): 440 ± 100 nM
- EC50 (HCV H77-1a replicon): 1000 ± 60 nM

SMILES: CC(C)(C)C(=O)Oc1cccc(O)c1C(=O)NC(=O)NC1c2ccccc2-c2ccccc21 [Compound 23, 1-(2-Hydroxy-6-trimethylacetoxyloxybenzoyl)-3-(9H-fluoren-9-yl)-urea]
- EC50 [1]: 530 ± 50 nM
- CC50 at 48 h [2]: > 16 µM
- EC50 (HCV JFH1-2a replicon; [4]): 480 ± 20 nM
- melting point: 187 to 189 °C
- EC50 (HCV Con1-1b replicon): 830 ± 280 nM
- EC50 (HCV H77-1a replicon): 670 ± 50 nM

SMILES: CCCCCC(=O)Oc1cccc(O)c1C(=O)NC(=O)NC1c2ccccc2-c2ccccc21 [Compound 24, 1-(2-Hexanoyloxy-6-hydroxybenzoyl)-3-(9H-fluoren-9-yl)-urea]
- EC50 [1]: 740 ± 370 nM
- CC50 at 48 h [2]: > 16 µM
- EC50 (HCV JFH1-2a replicon; [4]): 1080 ± 50 nM
- melting point: 200 to 222 °C
- EC50 (HCV Con1-1b replicon): 1000 ± 10 nM
- EC50 (HCV H77-1a replicon): 1050 ± 10 nM
